Results taken from patent publication US20030049807A1, “Micro-organism possessing enantioselective and regioselective nitrile hydratase/amidase activities” (priority 2001, published 2003).
Values belong to the molecule of their own block, whether it stands above or below them.

Tests used:
[1] = test system: nitrile hydratase/amidase activity of bacterial pellet of strain NCIMB 41108; test: Enzymatic activity of the whole-cell biocatalyst (wet bacterial pellet) towards nitrile/amide substrates, HPLC or GC; type: cell-based, Agrobacterium radiobacter 30″60; conditions: 30° C.; for enzymatic activity: 50 mg substrate, 250 mg wet pellet
Description: The enzymatic activity was evaluated using a bacterial pellet obtained after fermentation for 48 hours in fermentation medium as described below. Briefly, the culture was amplified from a single colony to begin with in a small volume of inoculating medium and then, for preparative purposes, in 100 ml of fermentation medium.
Fermentation medium: MgSO4 (0.5 g l^−1), ,CaCl2.6H2O (0.1 g l^−1), FeSO4 (0.4 g l^−1), CoCl2 (0.1 g l^−1), MnSO4 (0.01 g l^−1), (NH4)2SO4 (5 g l^−1), Yeast Extract (10 g l^31 1). The inducer, or the inducers, were added to the fermentation medium alone or in combination, sterilely, to a final concentration comprised of between 0.5-5 g/L. In particular, if not stated differently, valeronitrile, N-butyronitrile, isobutyronitrile and ε-caprolactam were used at a concentration respectively of 2.5 g/l and added in a single solution at the start of the process. To measure the basal activity of the strain 41108, no inducer was added to the fermentation medium.
Inoculation. […]
Reaction scheme. […] At preset time intervals, aliquots of the mixture were sterilely removed with a syringe, using a Minisart RC 25 filter 0,22 μm (Sartorius, Germany) and directly analysed by HPLC. The enzymatic activity was determined by the mean activity measured in the initial, linear phase of the conversion curve, relative to the wet weight of the bacterial paste. […]
Evaluation of the conversion percentages and of the enantiomeric excess. The percentage conversion of the substrate was measured by reverse phase HPLC using a reverse phase column of dimensions: 250×4.6 mm; 10 μm (Lichrosorb 10 RP18), and phosphate buffer at various percentages (10 mM, pH 2.5 e 3.5) with acetonitrile at 40 or 50% depending on the molecule to be detected. […] The e.e. values of the reaction products obtained from benzoylphenylpropionitrile were determined by HPLC fitted with a chiral column (dimensions: 100×4 mm; Chromtech AGP-column) and phosphate buffer used as eluent (10 mM, pH 7.0) with isopropanol (1%, v/v) and dimethyloctylamine (0,02%, v/v). […]

[2] = test system: nitrile-hydratase/amidase activity of the wild type strain; test: Nitrile-hydratase/amidase activity of the wild type parent strain after induction with valeronitrile; type: cell-based, Agrobacterium radiobacter; conditions: wild type strain sub-cultured with butyronitrile, induced with valeronitrile
Description: The parent strain, characterised as Agrobacterium radiobacter, was isolated from a crude bacterial extract with antibiotic activity. In order to determine activity towards nitrilic substrates, it was sub-cultured in medium containing butyronitrile and after some passages and induction with valeronitrile, a weak nitrile-hydratase/amidase activity was measured on benzoylphenylpropionitrile (BPN) of the wild type strain as such selected. To obtain a semi-constitutive strain, an aliquot of wild type parent strain was subjected to a treatment of mutagenesis, constituted by two treatment cycles with ethylmethanesulphonate, one cycle with nitrosoguanidine and two of mutagenesis with UV irradiation.

SMILES: CC(C#N)c1cccc(Oc2ccccc2)c1 (stereo not drawn) [α-methyl-3-phenoxibenzen-acetonitrile]
enzymatic activity ([1]; pellet induced with valeronitrile 0,25%, 1 hour): 5.23 IU g^−1 of wet cells

SMILES: CC(C#N)c1ccccc1 (stereo not drawn) [α-methylbenzyl cyanide]
rate of transformation, times higher ([1]; pellet induced with valeronitrile and ε-caprolactam 0,25%, comparator not given): approximately 20 times

SMILES: CC(C#N)c1ccc(-c2ccccc2)c(F)c1 (stereo not drawn) [2-fluoro-α-methyl[1,1′-diphenyl]-4-acetonitrile]
enzymatic activity ([1]; pellet induced with valeronitrile 0,2%, 24 hours): 0.26 IU g^−1 of wet cells

nitrile-hydratase/amidase activity [2]: weak
SMILES: CC(C#N)c1cccc(C(=O)c2ccccc2)c1 (racemic) [benzoylphenylpropionitrile, 2-(3-benzoylphenyl)propionitrile]
